Laboratory results reported in patent publication US20040093331A1, “Computer program products, systems and methods for information discovery and relational analyses” (Board of Regents, University of Texas System, priority 2002, published 2004).

Tested on: cardiac hypertrophy
Experiment: Isoproterenol-induced cardiac hypertrophy in mice, osmotic micro-infusion pumps, echocardiography before and 7 days after start of infusion
Format: in vivo
Experimental: Validation of a relevant relationship between chlorpromazine and cardiac hypertrophy was performed through a series of laboratory studies in mice comparing the effects of a known beta-adrenergic agonist (also known to induce hypertrophy), isoproterenol, with isoproterenol plus chlorpromazine.
In brief, the study included 2 groups of 8 mice fitted with osmotic micro-infusion pumps. One group was given a continuous dose of 20 mg/kg/day isoproterenol and the other 20 mg/kg/day isopreterenol+10 mg/kg/day chlorpromazine. A smaller dose of chlorpromazine was chosen in preference to a larger one to minimize alterations in feeding behavior. Additionally, it reduced an adverse reaction between chlorpromazine and avertin (tribromoethanol), a anesthetic agent. Echocardiograms were taken before treatment and 7 days after initiation of infusions. Mice were sacrificed and their heart weighed.
FIG. 19 and TABLE 22 summarize the study findings. Generally, cardiac hypertrophy (as assessed by echocardiography) was reduced in mice treated with chlorpromazine plus isoproterenol. […] Echocardiography was use to estimate the change in weight or thickness of several different cardiac structures over the course of treatment. For FIG. 19, ten mice received isoproterenol (ISO) and eight received isoproterenol and chlorpromazine (CPZ+ISO), where LVW=left ventricle weight (CPZ+ISO 11±27%, ISO 51±43%, P<0.02); LVMI=left ventricular mass index (CPZ+ISO 11±28%, ISO 50±52%, P<0.04); PWT=posterior wall thickness (CPZ+ISO 16±16%, ISO 36±27%, P<0.05), IVSWT=intraventricular septum wall thickness (CPZ+ISO 19±18%, ISO 31±20%, P<0.12).

Which “LVMI=left ventricular mass index” value (FIG. 19, change over course of treatment, echocardiography, P<0.04) does the source give for `CC(C)NCC(O)c1ccc(O)c(O)c1` (stereo not shown) [ISO, isoproterenol] here?
Its value is 50±52%.

What about the “PWT=posterior wall thickness” value (FIG. 19, change over course of treatment, echocardiography, P<0.05) of the same molecule?
The value was 36±27%.

And the “IVSWT=intraventricular septum wall thickness” value (FIG. 19, change over course of treatment, echocardiography, P<0.12)?
Its value is 31±20%.

What about the “LVW=left ventricle weight” value (FIG. 19, change over course of treatment, echocardiography, ten mice ISO, eight CPZ+ISO, P<0.02) of the same molecule?
Its value is 51±43%.

And the “DI VS WT” value (Table 22, change in intraventricular septum wall thickness over treatment, echocardiography, 7 days infusion)?
The value was 31% ± 21%.

What about the LLVW (Table 22, change in left ventricle weight over treatment, echocardiography, 20 mg/kg/day isoproterenol with or without 10 mg/kg/day chlorpromazine, 7 days) of the same molecule?
The LLVW was 53% ± 45%.

And the OLVMI (Table 22, change in left ventricular mass index over treatment, echocardiography, 7 days infusion)?
Its OLVMI is 50% ± 55%.

And the OPWT (Table 22, change in posterior wall thickness over treatment, echocardiography, 7 days infusion)?
The OPWT was 36% ± 28%.

`C=CCN1CC[C@]23c4c5ccc(O)c4O[C@H]2C(=O)CC[C@@]3(O)[C@H]1C5` [Naloxone] was tested. Which “effect of the drug in a mouse model of cardiohypertrophy” value (mouse model as described for chlorpromazine, values not given) did it give?
The value was “validated in vivo”.

For `CN(C)CCCN1c2ccccc2Sc2ccc(Cl)cc21` [chlorpromazine], which “cardiac hypertrophy (as assessed by echocardiography)” value (10 mg/kg/day chlorpromazine + 20 mg/kg/day isoproterenol versus isoproterenol alone, mice) is on record?
Its value is “protected the mice against the development of cardiac hypertrophy”.
